System: CD34-positive human haematopoietic cells
Assay: FACS analysis of healthy CD34-positive haematopoietic cells after LSD1i and MEKi sequential treatment
Assay type: cell-based
Excerpt: We next tested whether the LSD1i->MEKi sequential treatment may be affecting healthy human haematopoietic (CD34-positive) cells. We observed an increase in the expression of differentiation markers, such as CD11b and CD14, but no effect on the proportion of CD34-positive cells as a result of treatment with LSD1i (FIG. 11, A to C).
Umbilical cord bloods were purchased from Anthony Nolan. Mononuclear cells (MNCs) were isolated by Ficoll prior red blood cells (RBC) lysis buffer (BioLegend, catalog #420301). Cells were then stained with CD34 immunomagnetic positive selection kit (EasySep™ Human CD34 Positive Selection Kit II, StemCell technologies, catalog #17856, according to manufacturer instructions). Purity of CD34^+ cells isolated from MNCs was assessed by flow cytometry prior to long term storage in liquid nitrogen. For AML samples, patients gave informed consent for the storage and use of their blood cells for research purposes. Experiments were performed in accordance with the Local Research Ethics Committee, as previously described. Mononuclear cells from peripheral blood or bone marrow biopsies were isolated in the BCI tissue bank facility and stored in liquid nitrogen.
For the establishment of the feeder layer, MS-5 cells were plated onto 6-well plates (for the co-culture with CD34+ cord blood cells) or 96-well plates (for the co-culture with primary AML cells) at a density of 5-10,000 cells/cm^2 (48,000 cells for each well of a 6-well plate, or 3,200 cells for each well of a 96-well plate) with IMDM medium. Cells were then incubated at 37° C. for 48 hours, or until a confluency of approximately 70% was reached, after which they were irradiated with an X-ray source at 680 cGy. Following irradiation, the growth medium was removed and replaced with complete H5100 medium, and cell were incubated at 37° C. for a further 24 hours.
Following recovery, cord blood-derived CD34+ cells or primary AML cells were added to the plates containing the established MS-5 feeder layers. CD34+ cells were added at a density of 20,000 cells/well of a 6-well plate, whilst primary AML cells were added at 8,300 cells/well of a 96-well plate. Cells were then left to incubate at 37° C. and to recover for 4 days, after which treatments were started. […] Following treatment, CD34+ cells were harvested by collecting culture medium in FACS tubes. Adherent cells were detached by briefly incubating with trypsin-EDTA, then also added to the respective FACS tubes. Cells were centrifuged at 300×g for 8 minutes, the supernatant was removed and cells were resuspended in 1 mL PBS+2% FBS, then processed for FACS analysis as described below. For primary AML, cells were resuspended and transferred to separate 96-well plates, after which they were processed for Guava ViaCount analysis, as described below. […]

[1] = LSD1i 5 days, healthy CD34-positive cells co-cultured with MS5 (FIG. 11)

O=C(O)c1ccc(CN2CCC(CN[C@@H]3C[C@H]3c3ccccc3)CC2)cc1 [GSK2879552]
effect on normal stem/progenitor cell compartment (LSD1i 5 days then MEKi 3 days): preserved the normal stem/progenitor cell compartment | apoptosis (Annexin V) in healthy haematopoietic cells (LSD1i 5 days then MEKi 3 days, mostly restricted to the more mature CD34-negative cells (FIG. 11D, 12)): increased apoptosis | expression of differentiation markers, such as CD11b and CD14 [1]: increase | proportion of CD34-positive cells [1]: no effect

Source: patent US20240418723A1, “SEQUENTIAL TREATMENTS AND BIOMARKERS TO REVERSE RESISTANCE TO KINASE INHIBITORS” (Queen Mary University of London, priority 2021, published 2024)
